Test results: ChEMBL document CHEMBL5543160, “Psychoplastogenic DYRK1A Inhibitors with Therapeutic Effects Relevant to Alzheimer's Disease” (J Med Chem, 2024)
The source made the active and inactive calls. The rule behind the calls is not given here.

How the values were obtained:
[1] = target: 5-hydroxytryptamine receptor 2A (Homo sapiens) (UniProt P28223); test: Agonist activity at 5-HT2AR (unknown origin) in human PSYLI2 cells assessed as increase in biosensor activation at 10 uM incubated for 5 mins by PsychLight2 assay; format: functional, cell-based; details: PSYLI2 cell
[2] = target: 5-hydroxytryptamine receptor 2A (Homo sapiens) (UniProt P28223); test: Antagonist activity at 5-HT2AR (unknown origin) in human PSYLI2 cells assessed as decrease in fluorescence at 10 uM pretreated with 5-HT for 10 mins followed by compound addition and measured after 5 mins by PsychLight2 assay; format: functional, cell-based; details: PSYLI2 cell, filed as antagonist
[3] = target: Dual specificity tyrosine-phosphorylation-regulated kinase 1A (Homo sapiens, UniProt Q13627)
Cortical neurone [4] = test: Psychoplastogenic effect in Sprague-Dawley rat cortical neuron assessed as increase in dendritic spine density at 10 uM incubated for 24 hrs by spinogenesis based confocal microscopic analysis; format: functional, cell-based
Cortical neurone [5] = test: Induction of neurite outgrowth in Wistar rat Primary cortical neurons assessed as increase in neurite branching incubated for 72 hrs by imaging analysis; format: functional, cell-based; details: dose 0.3-10 µM
Mus musculus = test: Antipsychotic activity in C57BL/6J mouse assessed as reduction in 5-MeO-DMT-induced head-twitch response at 30 mg/kg, ip pretreated with compound for 10 mins followed by 5-MeO-DMT addition and measured after 20 mins; format: functional, organism-based; details: time 30.0 min
[6] = target: Microtubule-associated protein tau (Rattus norvegicus) (UniProt P19332); test: Inhibition of okadaic acid-induced Tau hyperphosphorylation Ser202/Thr205 residues in Sprague-Dawley rat cortical neuron at 50 uM preincubated with compound for 24 hrs followed by okadaic acid addition and measured after 1 hrs by fluorescence based immunohistochemistry analysis; format: cell-based
[7] = Toxicity in C57BL/6J mouse assessed as effect on locomotion upto 30 mg/kg, ip measured for 10 mins; format: organism-based; details: in vivo
Cortical neurone [8] = test: Induction of neurite outgrowth in Wistar rat Primary cortical neurons assessed as increase in neurite length incubated for 72 hrs by imaging analysis; format: functional, cell-based; details: dose 0.3-10 µM
[9] = Toxicity in C57BL/6J mouse assessed as induction of head-twitch response upto 30 mg/kg, ip measured for 10 mins; format: organism-based; details: in vivo
[10] = target: Microtubule-associated protein tau (Rattus norvegicus) (UniProt P19332); test: Inhibition of okadaic acid-induced Tau hyperphosphorylation Ser202/Thr205 residues in Sprague-Dawley rat cortical neuron at 1 to 50 uM preincubated with compound for 24 hrs followed by okadaic acid addition and measured after 1 hrs by fluorescence based immunohistochemistry analysis; format: cell-based; details: dose 1-50 µM
[11] = target: Phosphatidylinositol 4,5-bisphosphate 3-kinase catalytic subunit gamma isoform (Homo sapiens) (UniProt P48736); test: Inhibition of PIK3CG (unknown origin) at 10 uM by DiscoverX KINOMEscan assay
Homo sapiens = organism: Homo sapiens; test: Inhibition of CAMK (unknown origin) at 10 uM by DiscoverX KINOMEscan assay
[12] = target: Cyclin-dependent kinase 7 (Homo sapiens) (UniProt P50613); test: Inhibition of CDK7 (unknown origin) at 10 uM by DiscoverX KINOMEscan assay
[13] = target: Casein kinase I (Homo sapiens) (UniProt Q9HCP0+P78368+P48730+P49674+P48729); test: Inhibition of CK1 (unknown origin) at 10 uM by DiscoverX KINOMEscan assay; format: protein assay

5-hydroxytryptamine receptor 2A (Homo sapiens), sequence (P28223 whole entry): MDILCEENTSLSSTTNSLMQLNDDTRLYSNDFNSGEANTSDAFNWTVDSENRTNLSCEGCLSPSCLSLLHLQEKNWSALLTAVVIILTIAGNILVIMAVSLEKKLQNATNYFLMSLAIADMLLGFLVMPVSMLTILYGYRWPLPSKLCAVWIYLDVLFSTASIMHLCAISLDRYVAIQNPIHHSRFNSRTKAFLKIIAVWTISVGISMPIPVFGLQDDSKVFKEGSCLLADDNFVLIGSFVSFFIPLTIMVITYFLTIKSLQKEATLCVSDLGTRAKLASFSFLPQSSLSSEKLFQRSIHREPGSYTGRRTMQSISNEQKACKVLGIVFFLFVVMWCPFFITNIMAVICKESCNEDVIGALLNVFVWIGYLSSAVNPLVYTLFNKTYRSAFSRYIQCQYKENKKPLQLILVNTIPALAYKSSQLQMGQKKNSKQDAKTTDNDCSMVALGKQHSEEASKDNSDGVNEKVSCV
Microtubule-associated protein tau (Rattus norvegicus), sequence (P19332 whole entry, canonical isoform): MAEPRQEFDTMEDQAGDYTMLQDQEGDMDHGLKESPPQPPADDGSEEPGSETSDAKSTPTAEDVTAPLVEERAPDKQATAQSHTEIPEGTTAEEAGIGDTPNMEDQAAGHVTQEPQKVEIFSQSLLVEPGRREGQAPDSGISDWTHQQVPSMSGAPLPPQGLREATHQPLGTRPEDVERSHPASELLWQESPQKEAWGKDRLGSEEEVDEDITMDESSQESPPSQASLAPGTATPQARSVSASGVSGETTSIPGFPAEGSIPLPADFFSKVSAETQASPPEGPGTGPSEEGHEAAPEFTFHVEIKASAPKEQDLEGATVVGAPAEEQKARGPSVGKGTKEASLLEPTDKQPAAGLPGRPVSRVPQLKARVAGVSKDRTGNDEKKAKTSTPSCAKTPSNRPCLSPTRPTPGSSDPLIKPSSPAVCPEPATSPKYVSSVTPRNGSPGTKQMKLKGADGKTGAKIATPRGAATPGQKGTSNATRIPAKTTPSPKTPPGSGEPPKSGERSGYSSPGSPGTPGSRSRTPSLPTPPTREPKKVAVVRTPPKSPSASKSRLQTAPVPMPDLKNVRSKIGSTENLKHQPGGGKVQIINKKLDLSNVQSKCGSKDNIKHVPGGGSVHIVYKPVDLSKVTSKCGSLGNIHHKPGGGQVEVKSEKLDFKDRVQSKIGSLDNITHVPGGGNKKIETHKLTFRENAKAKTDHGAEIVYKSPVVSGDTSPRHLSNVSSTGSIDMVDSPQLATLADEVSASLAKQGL
Cyclin-dependent kinase 7 (Homo sapiens), sequence (P50613 whole entry): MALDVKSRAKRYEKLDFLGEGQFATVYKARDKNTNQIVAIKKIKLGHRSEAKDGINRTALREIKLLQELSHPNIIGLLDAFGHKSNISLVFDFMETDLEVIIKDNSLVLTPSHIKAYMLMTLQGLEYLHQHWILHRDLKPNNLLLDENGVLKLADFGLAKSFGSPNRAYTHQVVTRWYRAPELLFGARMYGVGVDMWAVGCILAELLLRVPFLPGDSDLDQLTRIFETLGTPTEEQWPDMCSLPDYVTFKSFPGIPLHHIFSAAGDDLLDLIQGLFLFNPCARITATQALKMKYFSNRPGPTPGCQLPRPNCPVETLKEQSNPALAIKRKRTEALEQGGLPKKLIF
Phosphatidylinositol 4,5-bisphosphate 3-kinase catalytic subunit gamma isoform (Homo sapiens), sequence (P48736 whole entry, looked up, canonical isoform): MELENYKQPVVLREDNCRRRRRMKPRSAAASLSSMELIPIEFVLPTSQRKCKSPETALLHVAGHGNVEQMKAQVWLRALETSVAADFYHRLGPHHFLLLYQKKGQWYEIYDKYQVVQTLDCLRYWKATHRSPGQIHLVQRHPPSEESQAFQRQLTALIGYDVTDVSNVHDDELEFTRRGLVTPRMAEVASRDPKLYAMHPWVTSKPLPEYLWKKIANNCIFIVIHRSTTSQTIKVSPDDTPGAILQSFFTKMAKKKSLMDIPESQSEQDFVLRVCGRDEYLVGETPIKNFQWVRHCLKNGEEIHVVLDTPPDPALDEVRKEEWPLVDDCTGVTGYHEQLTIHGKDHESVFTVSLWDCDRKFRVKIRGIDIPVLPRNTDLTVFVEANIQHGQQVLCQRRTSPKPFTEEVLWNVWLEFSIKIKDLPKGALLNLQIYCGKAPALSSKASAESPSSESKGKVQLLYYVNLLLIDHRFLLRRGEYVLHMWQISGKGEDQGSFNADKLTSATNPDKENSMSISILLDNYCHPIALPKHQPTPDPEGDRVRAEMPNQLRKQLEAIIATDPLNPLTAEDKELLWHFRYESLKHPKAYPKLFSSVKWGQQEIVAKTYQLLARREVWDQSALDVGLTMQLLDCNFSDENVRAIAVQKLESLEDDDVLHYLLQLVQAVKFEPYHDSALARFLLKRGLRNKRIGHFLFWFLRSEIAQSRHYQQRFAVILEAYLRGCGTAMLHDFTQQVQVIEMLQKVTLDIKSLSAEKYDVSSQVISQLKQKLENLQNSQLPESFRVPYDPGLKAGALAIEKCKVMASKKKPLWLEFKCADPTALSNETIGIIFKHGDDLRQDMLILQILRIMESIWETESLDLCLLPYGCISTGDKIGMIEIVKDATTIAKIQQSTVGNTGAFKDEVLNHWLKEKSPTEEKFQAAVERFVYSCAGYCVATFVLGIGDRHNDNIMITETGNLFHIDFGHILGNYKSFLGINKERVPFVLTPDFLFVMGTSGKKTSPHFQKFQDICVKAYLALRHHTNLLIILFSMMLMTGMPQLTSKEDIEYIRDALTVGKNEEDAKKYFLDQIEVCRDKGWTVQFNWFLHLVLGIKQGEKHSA

Structure (SMILES) | Activity [1] | Activity [2] | IC50 [3] | Activity (Cortical neurone [4]) | inhibition [10] | further results
COc1ccc2c(c1)S/C(=C\C(C)=O)N2CCN(C)C | inactive | Active | – | – | – | –
Cc1nccc2c3ccccc3n(CCN(C)C)c12 | inactive | Active | > 10000 nM | – | – | –
CC(=O)/C=C1\Sc2ccccc2N1CCN(C)C | inactive | Active | – | – | – | –
COc1ccc2c3ccnc(C)c3n(CCN(C)C)c2c1.O=C(O)/C=C/C(=O)O | – | – | 209 nM | Active | – | Activity (Cortical neurone [5]): Dose-Dependent Effect; Activity (Mus musculus): Active; inhibition [6]: Active; Activity [7]: Non-Toxic; Activity (Cortical neurone [8]): Dose-Dependent Effect; Activity [9]: Non-Toxic
NCCc1c[nH]c2ccc(O)cc12 | – | – | – | – | – | Activity ([1]; filed as agonist): Active
CN(C)CCc1c[nH]c2ccccc12 | – | – | – | Active | inactive | –
COc1ccc2c(c1)[nH]c1c(C)nccc12 | – | – | – | inactive | Active | inhibition [11]: Active; inhibition (Homo sapiens): Active; inhibition [12]: Active; inhibition [13]: Active
COc1ccc2c(c1)c1ccnc(C)c1n2CCN(C)C | inactive | Active | > 10000 nM | – | – | –
COc1ccc2c(c1)N(CCN(C)C)/C(=C/C(C)=O)S2 | – | – | 561 nM | – | inactive | Activity (Cortical neurone [5]): Dose-Dependent Effect; Activity (Cortical neurone [8]): Dose-Dependent Effect
